Key:
Type in all cases: in vivo
[1] = system: barnyardgrass (Echinochloa crus-galli); test: Test A preemergence, barnyardgrass; settings: 10 days
Outline: (§1)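 Greenhouse herbicide screen: seeded pots sprayed on soil (preemergence) or seedlings at one- to two-leaf stage, 2 to 10 cm (postemergence). Evaluation 10 days later by eye against controls; 100 means complete control, 0 no effect.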

[2] = system: kochia (Bassia scoparia); test: Test A preemergence, kochia; settings: Bassia scoparia, pre-emergence, 240 h, 0 to 100 scale, 10 days, read-out: Plant response rating, Kochia; for pest or weed control at 31 g/ha: 31 g ai/ha; for pest or weed control at 125 g/ha: 125 g ai/ha
Outline: as §1

[3] = system: redroot pigweed (Amaranthus retroflexus); test: Test A preemergence, redroot pigweed; settings: 0 to 100 scale, 10 days
Outline: as §1

[4] = system: ragweed (common ragweed, Ambrosia artemisiifolia); test: Test A preemergence, ragweed; settings: Ambrosia artemisiifolia, pre-emergence, 240 h, 0 to 100 scale, 10 days, read-out: Plant response rating, Ragweed; for pest or weed control at 31 g/ha: 31 g ai/ha; for pest or weed control at 125 g/ha: 125 g ai/ha
Outline: as §1

[5] = system: ryegrass, Italian (Italian ryegrass, Lolium multiflorum); test: Test A preemergence, ryegrass, Italian; settings: Lolium multiflorum, pre-emergence, 240 h, 0 to 100 scale, 10 days, read-out: Plant response rating, Ryegrass, Italian; for pest or weed control at 31 g/ha: 31 g ai/ha; for pest or weed control at 125 g/ha: 125 g ai/ha
Outline: as §1

[6] = system: barnyardgrass (Echinochloa crus-galli); test: Test A postemergence, barnyardgrass; settings: Postemergence, 0 to 100 scale, 10 days
Outline: as §1

[7] = system: kochia (Bassia scoparia); test: Test A postemergence, kochia; settings: Bassia scoparia, post-emergence, 240 h, 10 days, read-out: Plant response rating, Kochia; for pest or weed control at 31 g/ha: 31 g ai/ha, postemergence, 0 to 100 scale (0 no effect, 100 complete control); for pest or weed control at 125 g/ha: Postemergence, 125 g ai/ha, 0 to 100 scale
Outline: as §1

[8] = system: redroot pigweed (Amaranthus retroflexus); test: Test A postemergence, redroot pigweed; settings: 10 days
Outline: as §1

[9] = system: ryegrass, Italian (Italian ryegrass, Lolium multiflorum); test: Test A postemergence, ryegrass, Italian; settings: Lolium multiflorum, post-emergence, 240 h, 10 days, read-out: Plant response rating, Ryegrass, Italian; for pest or weed control at 31 g/ha: 31 g ai/ha, postemergence, 0 to 100 scale (0 no effect, 100 complete control); for pest or weed control at 125 g/ha: Postemergence, 125 g ai/ha, 0 to 100 scale
Outline: as §1

[10] = system: wheat (Triticum aestivum); test: Test A postemergence, wheat; settings: Triticum aestivum, post-emergence, 240 h, 10 days, read-out: Plant response rating, Wheat; for plant injury at 31 g/ha: 31 g ai/ha, postemergence, 0 to 100 scale (0 no effect, 100 complete control); for plant injury at 125 g/ha: Postemergence, 125 g ai/ha, 0 to 100 scale
Outline: as §1

[11] = system: galium (catchweed bedstraw, Galium aparine); test: Test A postemergence, galium; settings: Galium, post-emergence, 240 h, 10 days, read-out: Plant response rating, Galium; for pest or weed control at 31 g/ha: 31 g ai/ha, postemergence, 0 to 100 scale (0 no effect, 100 complete control); for pest or weed control at 125 g/ha: Postemergence, 125 g ai/ha, 0 to 100 scale
Outline: as §1

[12] = system: barnyardgrass (Echinochloa crus-galli); test: Test B flooded paddy test, barnyardgrass; settings: Echinochloa crus-galli; 250 g ai/ha, Flood; visually evaluated after 10 to 14 days; read-out: Plant response rating, Barnyardgrass (0 to 100 scale where 0 is no effect and 100 is complete control)
Outline: (§2)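 Application into floodwater (3 cm over soil) at the 2-leaf stage, with the depth held constant, followed by greenhouse growth for 10–14 days. Percent control was estimated visually versus controls, where 100 is complete control.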

[13] = system: ducksalad (Heteranthera limosa); test: Test B flooded paddy test, ducksalad; settings: Heteranthera limosa; 250 g ai/ha, Flood; visually evaluated after 10 to 14 days; read-out: Plant response rating, Ducksalad (0 to 100 scale where 0 is no effect and 100 is complete control)
Outline: as §2

[14] = system: rice (Oryza sativa); test: Test B flooded paddy test, rice; settings: Oryza sativa; 250 g ai/ha, Flood; visually evaluated after 10 to 14 days; read-out: Plant response rating, Rice (0 to 100 scale where 0 is no effect and 100 is complete control)
Outline: as §2

[15] = system: foxtail, giant (giant foxtail, Setaria faberi); test: Test A preemergence, foxtail, giant; settings: Setaria faberi, pre-emergence, 240 h, 0 to 100 scale, 10 days, read-out: Plant response rating, Foxtail, Giant
Outline: as §1

[16] = system: foxtail, giant (giant foxtail, Setaria faberi); test: Test A postemergence, foxtail, giant; settings: Setaria faberi, post-emergence, 240 h, Postemergence, 0 to 100 scale, 10 days, read-out: Plant response rating, Foxtail, Giant
Outline: as §1

[17] = 125 g ai/ha, 0 to 100 scale (0 no effect, 100 complete control)
[18] = 31 g ai/ha, postemergence, 0 to 100 scale (0 no effect, 100 complete control)
[19] = Postemergence, 125 g ai/ha, 0 to 100 scale

| SMILES | Plant response rating, Barnyardgrass ([1]; 31 g ai/ha, 0 to 100 scale) | Plant response rating, Barnyardgrass [1, 17] | pest or weed control at 31 g/ha [2] [%] | pest or weed control at 125 g/ha [2] [%] | Plant response rating, Pigweed, Redroot ([3]; 31 g ai/ha) | Plant response rating, Pigweed, Redroot ([3]; 125 g ai/ha) | pest or weed control at 31 g/ha [5] [%] | pest or weed control at 125 g/ha [5] [%] | Plant response rating, Barnyardgrass ([6]; 31 g ai/ha) | Plant response rating, Barnyardgrass ([6]; 125 g ai/ha) | pest or weed control at 31 g/ha [7] [%] | pest or weed control at 125 g/ha [7] [%] | Plant response rating, Pigweed, Redroot [8, 18] | Plant response rating, Pigweed, Redroot [8, 19] | pest or weed control at 31 g/ha [9] [%] | pest or weed control at 125 g/ha [9] [%] | plant injury at 31 g/ha [10] [%] | plant injury at 125 g/ha [10] [%] | pest or weed control at 31 g/ha [11] [%] | pest or weed control at 125 g/ha [11] [%] | also measured |
| --- | --- | --- | --- | --- | --- | --- | --- | --- | --- | --- | --- | --- | --- | --- | --- | --- | --- | --- | --- | --- | --- |
| CC(=O)OCOc1c(Cl)nn(C)c(=O)c1-c1c(C)sc2cccc(Cl)c12 [Compound 1, 5-[(acetyloxy)methoxy]-6-chloro-4-(4-chloro-2-methylbenzo[b]thien-3-yl)-2-methyl-3(2H)-pyridazinone] | 0 | 0 | 0 | 10 | 80 | 90 | 0 | 10 | 0 | 40 | 10 | 50 | 80 | 90 | 10 | 30 | 0 | 0 | 70 | 90 | pest or weed control at 31 g/ha [4]: 10%; pest or weed control at 125 g/ha [4]: 20%; pest or weed control at 250 g/ha [12]: 0%; pest or weed control at 250 g/ha [13]: 0%; plant injury at 250 g/ha [14]: 10% |
| CC(=O)OCOc1c(Cl)nn(C)c(=O)c1-c1c(C)ccc2ccccc12 [Compound 5, 5-[(acetyloxy)methoxy]-6-chloro-2-methyl-4-(2-methyl-1-naphthalenyl)-3(2H)-pyridazinone] | 80 | 100 | 40 | 70 | 100 | 100 | 70 | 100 | 40 | 80 | 30 | 60 | 90 | 100 | 30 | 80 | 10 | 30 | 100 | 100 | pest or weed control at 31 g/ha [4]: 100%; pest or weed control at 125 g/ha [4]: 100%; pest or weed control at 250 g/ha [12]: 40%; pest or weed control at 250 g/ha [13]: 80%; plant injury at 250 g/ha [14]: 35% |
| CC(=O)OCOc1c(Cl)nn(C)c(=O)c1-c1c2ccccc2c(Cl)c2ccccc12 [Compound 11, 5-[(acetyloxy)methoxy]-6-chloro-4-(10-chloro-9-anthracenyl)-2-methyl-3(2H)-pyridazinone] | 20 | 30 | 0 | 10 | 100 | 100 | 0 | 30 | 20 | 30 | 0 | 50 | 100 | 100 | 10 | 70 | 0 | 0 | 100 | 100 | pest or weed control at 31 g/ha ([15]; 31 g ai/ha): 10%; pest or weed control at 125 g/ha ([15]; 125 g ai/ha): 60%; pest or weed control at 31 g/ha ([16]; 31 g ai/ha): 30%; pest or weed control at 125 g/ha ([16]; 125 g ai/ha): 80%; pest or weed control at 250 g/ha [12]: 15%; pest or weed control at 250 g/ha [13]: 80%; plant injury at 250 g/ha [14]: 0% |

— patent US12692238B2, “Substituted pyridazinone herbicides” (FMC CORPORATION, priority 2020, dated 2026)
